“And” between values parts separate entries of the source, which are not always exact repeats. Equal entries are not always repeated.
What was measured:
[1] = system: Puccinia recondita f. sp. tritici; assay: Puccinia recondita f. sp. tritici / wheat / leaf disc preventative (brown rust); format: in vivo; conditions: foliar, wheat leaf segments cv. Kanzler, preventative (inoculated 1 day after application), compared to untreated control
Description: Leaf disks or leaf segments of various plant species are cut from plants grown in a greenhouse. The cut leaf disks or segments are placed in multiwell plates (24-well format) onto water agar. The leaf disks are sprayed with a test solution before (preventative) or after (curative) inoculation. Compounds to be tested are prepared as DMSO solutions (max. 10 mg/ml) which are diluted to the appropriate concentration with 0.025% Tween20 just before spraying. The inoculated leaf disks or segments are incubated under defined conditions (temperature, relative humidity, light, etc.) according to the respective test system. A single evaluation of disease level is carried out 3 to 14 days after inoculation, depending on the pathosystem. Percent disease control relative to the untreated check leaf disks or segments is then calculated. Wheat leaf segments cv. Kanzler are placed on agar in multiwell plates (24-well format) and sprayed with the formulated test compound diluted in water. The leaf disks are inoculated with a spore suspension of the fungus 1 day after application. The inoculated leaf segments are incubated at 19° C. and 75% rh under a light regime of 12 h light/12 h darkness in a climate cabinet and the activity of a compound is assessed as percent disease control compared to untreated when an appropriate level of disease damage appears in untreated check leaf segments (7-9 days after application).

[2] = system: Puccinia recondita f. sp. tritici; assay: Puccinia recondita f. sp. tritici / wheat / leaf disc curative (brown rust); format: in vivo; conditions: foliar, 24 h, wheat leaf segments cv. Kanzler, curative (applied 1 day after inoculation), compared to untreated control, read-out: control of Puccinia recondita f. sp. tritic
Description: Leaf disks or leaf segments of various plant species are cut from plants grown in a greenhouse. The cut leaf disks or segments are placed in multiwell plates (24-well format) onto water agar. The leaf disks are sprayed with a test solution before (preventative) or after (curative) inoculation. Compounds to be tested are prepared as DMSO solutions (max. 10 mg/ml) which are diluted to the appropriate concentration with 0.025% Tween20 just before spraying. The inoculated leaf disks or segments are incubated under defined conditions (temperature, relative humidity, light, etc.) according to the respective test system. A single evaluation of disease level is carried out 3 to 14 days after inoculation, depending on the pathosystem. Percent disease control relative to the untreated check leaf disks or segments is then calculated. Wheat leaf segments cv. Kanzler are placed on agar in multiwell plates (24-well format). The leaf segments are inoculated with a spore suspension of the fungus. Plates are stored in darkness at 19° C., and 75% rh. The formulated test compound diluted in water is applied 1 day after inoculation. The leaf segments are incubated at 19° C., and 75% rh under a light regime of 12 h light/12 h darkness in a climate cabinet and the activity of a compound is assessed as percent disease control compared to untreated when an appropriate level of disease damage appears in untreated check leaf segments (6-8 days after application).

[3] = system: Phakopsora pachyrhizi; assay: Phakopsora pachyrhizi / soybean / leaf disc preventative (Asian soybean rust); format: in vivo; conditions: foliar, soybean leaf disks, compared to untreated control
Description: Leaf disks or leaf segments of various plant species are cut from plants grown in a greenhouse. The cut leaf disks or segments are placed in multiwell plates (24-well format) onto water agar. The leaf disks are sprayed with a test solution before (preventative) or after (curative) inoculation. Compounds to be tested are prepared as DMSO solutions (max. 10 mg/ml) which are diluted to the appropriate concentration with 0.025% Tween20 just before spraying. The inoculated leaf disks or segments are incubated under defined conditions (temperature, relative humidity, light, etc.) according to the respective test system. A single evaluation of disease level is carried out 3 to 14 days after inoculation, depending on the pathosystem. Percent disease control relative to the untreated check leaf disks or segments is then calculated. Soybean leaf disks are placed on water agar in multiwell plates (24-well format) and sprayed with the formulated test compound diluted in water. One day after application leaf discs are inoculated by spraying a spore suspension on the lower leaf surface. After an incubation period in a climate cabinet of 24-36 hours in darkness at 20° C., and 75% rh leaf disc are kept at 20° C. with 12 h light/day and 75% rh. The activity of a compound is assessed as percent disease control compared to untreated when an appropriate level of disease damage appears in untreated check leaf disks (12-14 days after application).

[4] = system: Glomerella lagenarium (Colletotrichum lagenarium); assay: Glomerella lagenarium (Colletotrichum lagenarium) liquid culture / cucumber / preventative (anthracnose); format: cell-based; conditions: Colletotrichum orbiculare, liquid culture (PDB), growth inhibition measured photometrically 3-4 days after application, compared to untreated control
Description: […] fragments or conidia suspensions of a fungus prepared either freshly from liquid cultures of the fungus or from cryogenic storage, are directly mixed into nutrient broth. DMSO solutions of the test compound (max. 10 mg/ml) are diluted with 0.025% Tween20 by a factor of 50 and 10 μl of this solution is pipetted into a microtiter plate (96-well format). The nutrient broth containing the fungal spores/mycelia fragments is then added to give an end concentration of the tested compound. The test plates are incubated in the dark at 24° C., and 96% relative humidity. The inhibition of fungal growth is determined photometrically after 2 to 7 days, depending on the pathosystem, and percent antifungal activity relative to the untreated check is calculated. Conidia of the fungus from cryogenic storage are directly mixed into nutrient broth (PDB potato dextrose broth). Alter placing a (DMSO) solution of test compound into a microtiter plate (96-well format), the nutrient broth containing the fungal spores is added. The test plates are incubated at 24° C., and the inhibition of growth is measured photometrically 3-4 days after application.

With CN(C)NC(=O)Cc1ccc(-c2noc(C(F)(F)F)n2)cc1F [Compound 1.26, 2-[2-fluoro-4-[5-(trifluoromethyl)-1,2,4-oxadiazol-3-yl]phenyl]-N′,N′-dimethyl-acetohydrazide] the pest or weed control at 200 ppm [1] was ≥ 80%, the pest or weed control at 200 ppm [2] was ≥ 80% and the pest or weed control at 200 ppm [3] was ≥ 80%. For the same compound, the inhibition of growth at 20 ppm [4] was ≥ 80% and the melting point was 156 to 158 °C.

For CN(C)N(CC(=O)NC(C)(C)C)C(=O)c1ccc(-c2noc(C(F)(F)F)n2)cc1 [Compound 1.1, N-tert-butyl-2-[dimethylamino-[4-[5-(trifluoromethyl)-1,2,4-oxadiazol-3-yl]benzoyl]amino]-acetamide], the pest or weed control at 200 ppm [1] was ≥ 80%, the pest or weed control at 200 ppm [2] was ≥ 80% and the pest or weed control at 200 ppm [3] was ≥ 80%. The inhibition of growth at 20 ppm [4] was ≥ 80%.

For O=C(NN1CCCCC1=O)c1ccc(-c2noc(C(F)(F)F)n2)cc1F [Compound 1.23, 2-fluoro-N-(2-oxo-1-piperidyl)-4-[5-(trifluoromethyl)-1,2,4-oxadiazol-3-yl]benzamide], the pest or weed control at 200 ppm [1] was ≥ 80%, the pest or weed control at 200 ppm [2] was ≥ 80% and the pest or weed control at 200 ppm [3] was ≥ 80%. The inhibition of growth at 20 ppm [4] was ≥ 80% and the melting point was 120 to 136 °C.

In the case of CC(C)OCC1CN(NC(=O)c2ccc(-c3noc(C(F)(F)F)n3)cc2)C(=O)O1 (centres unmarked) [Compound 1.20, N-[5-(isopropoxymethyl)-2-oxo-oxazolidin-3-yl]-4-[5-(trifluoromethyl)-1,2,4-oxadiazol-3-yl]benzamide], the pest or weed control at 200 ppm [3] is reported as ≥ 80%, the inhibition of growth at 20 ppm [4] is reported as ≥ 80% and the melting point is reported as 192 to 197 °C.

For CC(C)(C)NC(=O)CN(C(=O)c1ccc(-c2noc(C(F)(F)F)n2)cc1)N1CCOC1=O [Compound 1.2, N-[2-(tert-butylamino)-2-oxo-ethyl]-N-(2-oxooxazolidin-3-yl)-4-[5-(trifluoromethyl)-1,2,4-oxadiazol-3-yl]benzamide], the pest or weed control at 200 ppm [1] was ≥ 80% and the pest or weed control at 200 ppm [3] was ≥ 80%.

In the case of O=C(NN1CCOC1=O)c1ccc(-c2noc(C(F)(F)F)n2)cc1 [Compound 1.19, N-(2-oxooxazolidin-3-yl)-4-[5-(trifluoromethyl)-1,2,4-oxadiazol-3-yl]benzamide], the pest or weed control at 200 ppm [1] is reported as ≥ 80%, the pest or weed control at 200 ppm [2] is reported as ≥ 80% and the pest or weed control at 200 ppm [3] is reported as ≥ 80%. For the same compound, the inhibition of growth at 20 ppm [4] was ≥ 80% and the melting point was 196 to 200 °C.

In the case of CN(C)NC(=O)Cc1ccc(-c2noc(C(F)(F)F)n2)cc1 [Compound 1.27, N′,N′-dimethyl-2-[4-[5-(trifluoromethyl)-1,2,4-oxadiazol-3-yl]phenyl]-acetohydrazide], the pest or weed control at 200 ppm [1] is reported as ≥ 80%, the pest or weed control at 200 ppm [2] is reported as ≥ 80% and the pest or weed control at 200 ppm [3] is reported as ≥ 80%. The inhibition of growth at 20 ppm [4] was ≥ 80% and the melting point was 180 to 182 °C.

With CC(=O)NNC(=O)c1ccc(-c2noc(C(F)(F)F)n2)cc1F [Compound 1.4, N′-acetyl-2-fluoro-4-[5-(trifluoromethyl)-1,2,4-oxadiazol-3-yl]benzohydrazide] the pest or weed control at 200 ppm [1] was ≥ 80%, the pest or weed control at 200 ppm [2] was ≥ 80% and the pest or weed control at 200 ppm [3] was ≥ 80%.

For O=C1CN(NC(=O)c2ccc(-c3noc(C(F)(F)F)n3)cc2)C(=O)N1 [Compound 1.9], the pest or weed control at 200 ppm [2] was ≥ 80%, the pest or weed control at 200 ppm [3] was ≥ 80% and the melting point was 192 to 196 °C.

With CN1CCN(NC(=O)c2ccc(-c3noc(C(F)(F)F)n3)cc2)C1=O [Compound 1.8, N-(3-methyl-2-oxo-imidazolidin-1-yl)-4-[5-(trifluoromethyl)-1,2,4-oxadiazol-3-yl]benzamide] the pest or weed control at 200 ppm [1] was ≥ 80%, the pest or weed control at 200 ppm [3] was ≥ 80% and the melting point was 238 to 245 °C.

For O=C(Cc1ccc(-c2noc(C(F)(F)F)n2)cc1)NN1CCOCC1 [Compound 1.17, N-morpholino-2-[4-[5-(trifluoromethyl)-1,2,4-oxadiazol-3-yl]phenyl]acetamide], the pest or weed control at 200 ppm [1] was ≥ 80%, the pest or weed control at 200 ppm [2] was ≥ 80% and the pest or weed control at 200 ppm [3] was ≥ 80%. For the same compound, the melting point was 182 to 188 °C.

For O=C(NNCCOC(F)F)c1ccc(-c2noc(C(F)(F)F)n2)cc1 [Compound 1.22, N′-[2-(difluoromethoxy)ethyl]-4-[5-(trifluoromethyl)-1,2,4-oxadiazol-3-yl]benzohydrazide], the pest or weed control at 200 ppm [1] was ≥ 80%, the pest or weed control at 200 ppm [2] was ≥ 80% and the pest or weed control at 200 ppm [3] was ≥ 80%. For the same compound, the inhibition of growth at 20 ppm [4] was ≥ 80%.

For O=C(Cc1ccc(-c2noc(C(F)(F)F)n2)cc1)NN1CCOC1=O [Compound 1.21, N-(2-oxooxazolidin-3-yl)-2-[4-[5-(trifluoromethyl)-1,2,4-oxadiazol-3-yl]phenyl]acetamide], the pest or weed control at 200 ppm [1] was ≥ 80%, the pest or weed control at 200 ppm [2] was ≥ 80% and the pest or weed control at 200 ppm [3] was ≥ 80%. The inhibition of growth at 20 ppm [4] was ≥ 80% and the melting point was 184 to 187 °C.

With O=C(NN1CCOC1=O)c1ccc(-c2noc(C(F)(F)F)n2)cc1F [Compound 1.3, 2-fluoro-N-(2-oxooxazolidin-3-yl)-4-[5-(trifluoromethyl)-1,2,4-oxadiazol-3-yl]benzamide] the pest or weed control at 200 ppm [1] was ≥ 80%, the pest or weed control at 200 ppm [2] was ≥ 80% and the pest or weed control at 200 ppm [3] was ≥ 80%. The inhibition of growth at 20 ppm [4] was ≥ 80% and the melting point was 186 to 189 °C and 186.8 to 188.8 °C.

For O=C(Cc1ccc(-c2noc(C(F)(F)F)n2)cc1)NN1CCCCC1=O [Compound 1.14, N-(2-oxo-1-piperidyl)-2-[4-[5-(trifluoromethyl)-1,2,4-oxadiazol-3-yl]phenyl]acetamide], the pest or weed control at 200 ppm [1] was ≥ 80%, the pest or weed control at 200 ppm [2] was ≥ 80% and the pest or weed control at 200 ppm [3] was ≥ 80%. For the same compound, the melting point was 165 to 170 °C.

For O=C(NN1CCOCC1)c1ccc(-c2noc(C(F)(F)F)n2)c(F)c1 [Compound 1.16, 3-fluoro-N-morpholino-4-[5-(trifluoromethyl)-1,2,4-oxadiazol-3-yl]benzamide], the pest or weed control at 200 ppm [1] was ≥ 80%, the pest or weed control at 200 ppm [3] was ≥ 80% and the melting point was 140 to 160 °C.

In the case of O=C(NN1CCCCC1=O)c1ccc(-c2noc(C(F)(F)F)n2)c(F)c1 [Compound 1.24, 3-fluoro-N-(2-oxo-1-piperidyl)-4-[5-(trifluoromethyl)-1,2,4-oxadiazol-3-yl]benzamide], the pest or weed control at 200 ppm [1] is reported as ≥ 80%, the pest or weed control at 200 ppm [2] is reported as ≥ 80% and the pest or weed control at 200 ppm [3] is reported as ≥ 80%. The inhibition of growth at 20 ppm [4] was ≥ 80% and the melting point was 180 to 200 °C.

With O=C(NN1CCCCC1=O)c1ccc(-c2noc(C(F)(F)F)n2)cc1 [Compound 1.7, N-(2-oxo-1-piperidyl)-4-[5-(trifluoromethyl)-1,2,4-oxadiazol-3-yl]benzamide] the pest or weed control at 200 ppm [1] was ≥ 80%, the pest or weed control at 200 ppm [3] was ≥ 80% and the melting point was 192 to 216 °C.

Source: patent US20190292174A1, “MICROBIOCIDAL OXADIAZOLE DERIVATIVES” (SYNGENTA PARTICIPATIONS AG, priority 2016, published 2019)
